Test results: patent US20180250260A1, “METHODS FOR TREATING CANCER” (BOSTON BIOMEDICAL, INC., priority 2015, published 2018)
Several values for one entry are separate records, joined by “and”; a condition that tells them apart may be missing. Equal values may be shown once. Entries after “also recorded” stand apart in the source; their conditions may differ.

How the values were obtained:
[1] = test system: advanced gastrointestinal cancer, including CRC and gastric cancer; test: Phase Ib open-label multi-center study, anti-tumor activity (RECIST 1.1); type: in vivo, human; design: key to Best Response (RECIST 1.1): partial response (PR); stable disease (SD)
Experimental: (§1) The effects of 2-acetylnaphtho[2,3-b]furan-4,9-dione in combination with FOLFIRI in patients with advanced gastrointestinal cancer, including CRC and gastric cancer, were studied in phase lb open-label, multi-center studies. In one phase lb open label, multi-center clinical study, the safety, tolerability, and preliminary anti-tumor activity of 2-acetylnaphtho[2,3-b]furan-4,9-dione in combination with FOLFIRI, with and without bevacizumab, were assessed in adult patients with advanced gastrointestinal cancer, including CRC and gastric cancer. In addition, the pharmacokinetic profile and the pharmacodynamics (biomarkers) of 2-acetylnaphtho[2,3-b]furan-4,9-dione in combination with FOLFIRI, with and without bevacizumab, were studied, and the recommended phase II dose (RP2D) of 2-acetylnaphtho[2,3-b]furan-4,9-dione and FOLFIRI, with or without bevacizumab, were evaluated.
In total, as of April 2015, 18 patients aged 40-72 were enrolled in the open label, multi-center, phase lb study (see Table 2). These patients were pretreated with an average of >3 prior lines of therapy. Of this group, 10 patients (56%) previously progressed on FOLFIRI.
Of the 17 patients evaluable for response, 8 patients received 2-acetylnaphtho[2,3-b]furan-4,9-dione in combination with FOLFIRI and 9 patients received 2-acetylnaphtho[2,3-b]furan-4,9-dione in combination with FOLFIRI and bevacizumab (see FIG. 7).
Patients received continuous oral administration of 2-acetylnaphtho[2,3-b]furan-4,9-dione twice daily in 28 day cycles. A FOLFIRI regimen was administered (with or without bevacizumab depending on patient) every 14 days. Specifically, 2-acetylnaphtho[2,3-b]furan-4,9-dione was administered at a dose of 240 mg BID in combination with FOLFIRI (5-FU 400 mg/m^2 bolus with 2400 mg/m^2, irinotecan 180 mg/m^2, and leucovorin 400 mg/m^2 infusion) with or without bevacizumab 5 mg/kg, administered bi-weekly until progression of disease, unacceptable toxicity, or other discontinuation criterion was met.
(§2) Pharmacokinetics and pharmacodynamics were evaluated and objective tumor response was assessed every 8 weeks using Response Evaluation Criteria In Solid Tumors (RECIST 1.1).

[2] = Phase Ib open-label multi-center study, pharmacokinetics; type: in vivo, human; conditions: 240 mg BID with FOLFIRI, with and without bevacizumab
Experimental: as §1, §2

p-Stat3 = test: Cancer stemness biomarker immunofluorescence in cancer xenograft tumors: p-Stat3; type: in vivo, mouse xenograft
Experimental: (§3) The effects of 2-acetylnaphtho[2,3-b]furan-4,9-dione, a compound of formula (I), on cancer stem cell markers was examined in cancer xenograft models with and without irinotecan. Human cancer cells were subcutaneously implanted into the right flank of 5-7 weeks old female athymic nude mice. When tumor size reached 200 mm^3, animals were treated with 2-acetylnaphtho[2,3-b]furan-4,9-dione, irinotecan, or a combination of 2-acetylnaphtho[2,3-b]furan-4,9-dione and irinotecan. Tumors were harvested after first dosing.
(§4) The harvested tissues were fixed in 3.7% neutral buffered formaldehyde at 4° C. for overnight. The paraffin was embedded, cut to about 5 microns, and affixed onto positively-charged slides. After being baked and de-paraffinized, the slides with tumor or control tissues were incubated in 10 mM Sodium Citrate (pH 6.0) for 10 minutes. After antigen retrieval, slides were probed with primary antibodies P-STAT3 (rabbit, Cell Signaling, 1:100), 13-Catenine (mouse, Santa Cruz, 1:400) at 4° C. overnight, and then Alexa Fluor fluorescent dyes-conjugated secondary antibodies (1:500, Invitrogen). After mounting, the slides with ProLong mounting medium with DAPI (Invitrogen) were examined under a Zeiss fluorescence microscope with 20× objective, and analyzed with Zen software.

β-catenin = test: Cancer stemness biomarker immunofluorescence in cancer xenograft tumors: β-catenin; type: in vivo
Experimental: as §3, §4

[3] = 240 mg BID with FOLFIRI, with and without bevacizumab, 17 evaluable patients
[4] = individual patients, 240 mg BID with chemotherapy backbone FOLFIRI
[5] = individual patients, 240 mg BID with chemotherapy backbone FOLFIRI/Bev
[6] = added to irinotecan, cancer xenograft tumor model, FIG. 6
[7] = alone, human colon cancer xenograft tumor (SW480) in nude mice, FIG. 4

CC(=O)c1cc2c(o1)C(=O)c1ccccc1C2=O [2-acetylnaphtho[2,3-b]furan-4,9-dione]
regression in the PR patients (RECIST 1.1) ([1]; 240 mg BID with FOLFIRI, with and without bevacizumab): 44% and 33%
patients with prolonged SD of ≥6 month ([1]; 240 mg BID with FOLFIRI, with and without bevacizumab, 7 of 17 patients): 41%
evaluable patients with prolonged SD (>6 months) ([1]; 240 mg BID with FOLFIRI, with and without bevacizumab, 10 of 17): 59%
evaluable patients with reduced target lesions ([1]; 240 mg BID with FOLFIRI, with and without bevacizumab, 15 of 17, FIG. 7): 88%
number of patients with PR (RECIST 1.1) [1, 3]: 2
number of patients with SD [1, 3]: 14
patients in whom anti-cancer activity was observed ([1]; 240 mg BID with FOLFIRI, with and without bevacizumab, advanced CRC who had failed prior standard chemotherapy): 94%
median progression-free survival (PFS) ([1]; 240 mg BID with FOLFIRI, with and without bevacizumab, evaluable patients): 5.72 months
overall survival of patients with higher expression levels of Stat3 (pStat3) before treatment ([1]; clinical trials, at least in CRC patients): prolonged overall survival
response of a patient with gastric adenocarcinoma with a metastatic lesion in the liver ([1]; combination with FOLFIRI for 8 weeks, failed prior epirubicin, oxaliplatin and Xeloda, FIG. 8): complete response
median survival of pStat3-positive patients compared to pStat3-negative patients ([1]; in combination with FOLFIRI and bevacizumab): longer median survival
Best Response (RECIST 1.1) [1, 4]: SD (4×) and PR (3×)
Comment on course of disease [1, 4]: prolonged stable disease; also recorded: unequivocal progression; also recorded: prolonged stable disease,; also recorded: prolonged SD/PR,
Weeks on Study [1, 4]: 25 weeks and 17 weeks (2×) and 16 weeks and 6 weeks and 3 weeks and 34+ weeks and 32+ weeks and 36 weeks
tumor growth [1, 4]: 8% tumor growth, and 3% tumor growth
tumor regression [1, 4]: 19% tumor regression, and 44% tumor regression and 23% tumor regression and 17 tumor regression, % and 40% tumor regression, and 83% tumor regression,
Best Response (RECIST 1.1) [1, 5]: SD
Comment on course of disease [1, 5]: prolonged stable disease,; also recorded: prolonged stable disease
Weeks on Study [1, 5]: 85+ weeks and 29 weeks and 24 weeks and 18 weeks and 15 weeks and 14 weeks and 25 weeks (2×) and 42 weeks
tumor regression [1, 5]: 25% tumor regression, and 14% tumor regression, and 18% tumor regression, and 4% tumor regression and 10% tumor regression and 21% tumor regression and 1% tumor regression; and 4% tumor regression; and 18% tumor regression;
lesion formations in patients previously exposed to FOLFIRI but experiencing progression ([1]; with bi-weekly FOLFIRI with or without bevacizumab): reduced lesion formations in almost all of the patients
pharmacokinetic interactions [2]: No significant pharmacokinetic interactions were observed
irinotecan-enhanced staining for stem cell marker p-Stat3 (p-Stat3; [6]): attenuated
expression of p-Stat3 stem cell marker (p-Stat3; [7]): dramatically reduced
irinotecan-enhanced staining for stem cell marker β-catenin (β-catenin; [6]): attenuated
expression of β-catenin stem cell marker (β-catenin; [7]): dramatically reduced
